Source: patent US20240316202A1, “NOVEL PHOTOSENSITIZER” (The University of Tokyo, priority 2020, published 2024)

Legend:
[1] = Detection of singlet oxygen by near infrared spectroscopy; type: physicochemical; conditions: PBS pH 7.4, 0.1% DMSO, dye 1 μM, 508 nm excitation; mean±S.D.
Method: Singlet oxygen was detected by measuring ^1O2 light emission near 1,270 nm by laser irradiation using a near infrared emission spectrometer (Fluorolog-3, Horiba, Japan). A dye was dissolved in phosphate buffered saline (PBS) containing 0.1% DMSO as a co-solvent and irradiation was performed with light at a wavelength of 508 nm. In order to calculate a ^1O2 quantum yield, the light emission signal was integrated for each wavelength for 7 seconds. A singlet oxygen generation quantum yield was calculated using Rose bengal (0.75) (DeRosa, M. C. & Crutchley, R. J. Photosensitized singlet oxygen and its applications. Coordination Chemistry Reviews 233-234, 351-371, doi:10.1016/S0010-8545(02)00034-6 (2002)) in PBS as a reference.
Whether HMRIef had photosensitizing ability was examined. In the examination, the singlet oxygen generation ability was evaluated by the light emission intensity at […] under light irradiation conditions using the property that singlet oxygen (^1O2) generated by energy transfer from the photoexcited probe to oxygen molecules emits near-infrared light having a peak top near 1,270 nm.
The right view of FIG. 6 illustrates the light emission spectrum of ^1O2 by 508 nm laser excitation. The dashed line was taken as the background. The spectra were measured in PBS with pH 7.4 containing 0.1% DMSO as a co-solvent (dye concentration: 1 μM). […]

[2] = Optical characteristics (UV-Vis absorption and fluorescence spectroscopy); type: physicochemical; conditions: physiological conditions
Method: UV-visible spectra were obtained with Shimadzu UV-1800. A fluorescence spectroscopic test was performed with Hitachi F7000.
The slit width in the fluorescence measurement was 1 nm for both excitation and light emission. The photomultiplier tube voltage was 400 V. The area under the light emission spectrum of the test sample and the spectral area of the standard sample were determined and calculated by the following equation to determine a relative fluorescence quantum yield (Φfl).
The optical characteristics of the probe (1 μM) were examined in a 0.1 M sodium phosphate buffer containing 0.1% DMSO as a co-solvent.
Therefore, it is expected that HMRIef in which iodine is introduced into the xanthene ring site of HMRef is also placed in the same equilibrium. […] In addition, a fluorescence spectrum was also measured. […]
FIG. 3(a) illustrates the chemical structure and optical characteristics of HMRIef. FIG. 3(b) illustrates the measurement results of the absorption spectrum and fluorescence spectrum of HMRIef (measurement was performed in a 0.1 M sodium phosphate buffer containing 0.1% DMSO as a co-solvent. dye concentration: 1 μM (absorption) or 10 μM (fluorescence)). FIG. 3(c) illustrates the measurement results of the absorption spectra measured in 0.1 M sodium phosphate buffers with various pH containing 0.1% DMSO as a co-solvent (dye concentration: 1 μM). […]

[3] = in PBS, used as reference; cited from earlier work

O=c1ccc2c(-c3ccccc3CO)c3ccc(NCC(F)(F)F)cc3oc-2c1 [HMRef]
singlet oxygen generation quantum yield [1]: 0.05±0.14
fluorescence quantum yield (Φfl) [2]: 0.78

O=C([O-])c1c(Cl)c(Cl)c(Cl)c(Cl)c1-c1c2cc(I)c(=O)c(I)c-2oc2c(I)c([O-])c(I)cc12.[Na+].[Na+] [Rose bengal]
singlet oxygen generation quantum yield (reference value) [3]: 0.75
